Values of other authors as cited in US20030100472A1, “Detergent tablet compositions” (Unilever Home & Personal Care USA, Division of Conopco, Inc., priority 2001, published 2003).
Where two headings read alike, the source gives them in different places.

Water Solubility (g/100 g) (grams of solid required to form a saturated solution in 100 grams of water at 20° C., highly water-soluble materials)	SMILES	Water Solubility (g/100 g) (at 20° C., other materials)
>100	NC(N)=O [Urea]	–
–	O=BO[O-].[Na+] [Sodium perborate anhydrous]	3.7
–	O=P(O)(O)OP(=O)(O)OP(=O)(O)O [Sodium tripolyphosphate anhydrous]	15
